Assay results reported in patent publication EP0769966B1, “BIOTIN COMPOUNDS FOR TARGETTING TUMORS AND SITES OF INFECTION” (priority 1994, dated 1995).

Tests used:
[1] = biological target: avidin (Gallus gallus, UniProt P02701); test: Competitive binding of F-18 labeled biotin analogs to avidin vs. unlabeled d-biotin; conditions: in the presence of varying concentrations of unlabeled d-biotin
Protocol: The two biotin derivatives were evaluated for binding to avidin in the presence of varying concentrations of unlabeled d-biotin as described in Example 3.
A preliminary measure of the binding characteristics of the fluoro analogs of biotin were performed. The binding of these novel F-18 labeled biotin analogs to avidin was evaluated by measuring the binding of F-18 labeled biotin analogs to avidin in the presence of varying concentrations of unlabeled d-biotin. Serial dilutions of d-biotin were prepared in phopshate buffered saline pH 7.4 (PBS). A fixed quantity of the no-carrier added F-18 labeled biotin 1 or 2 (10- 100µCi) were mixed with each d-biotin dilution so that the range of concentrations of cold biotin were 3 orders of magnitude greater and less than the concentration of avidin ([…]). A 200 µl aliquot of the F-18 biotin/cold biotin solution was added to 200 µl of avidin in PBS. The solution was vortexed and allowed to incubate for 1 hour after which time a 5 µl aliquot of the solution was analysed by instant thin layer chromatography (Gelman ILTC-SG) using 0.1 M acetate buffer pH 6.0. In this chromatographic system the F-18 biotin analogs bound to avidin origin while the unbound F-18-biotin analogs move to the solvent front. Percent binding of F-18 biotin analog was calculated as [(counts at origin/total counts)* 100]. For each F-18-biotin analog potential impurities remaining at the origin were determined and the results of binding corrected accordingly.

[2] = system: E. coli infected rats; test: in vivo; type: in vivo, male Sprague-Dawley rats; conditions: for Infected to normal tissue ratio, Norm mus: infection/normal muscle
Protocol: (§1) A clinical isolate of E. Coli was stored at -70°C in a freezing media containing 20% glycerol and 80% dextrose phosphate until use. Aliquots of bacteria were defrosted and colony counts performed on serial dilutions grown overnight on BBL Brucella agar plates. Based on the colony count, freshly thawed bacteria suspensions were washed and diluted with saline to a final concentration of […]. Aliquots (0.1 ml) of bacterial suspensions (8 x 10^9 organisms/ml) were injected into the right thigh muscle of 48 male Sprague-Dawley rats (125-150 g, Charles River Breeding Laboratories, Burlington, MD). Twenty-four rats were used for each labeled biotin compound. Twenty-four hours after injection, swelling in the right thigh readily appeared, and 24 rats each received 1.67 mg of avidin in saline via the tail vein. […] Rats were sacrificed at 5 and 60 min. post-injection, six rats per time point. Blood samples were obtained by cardiac puncture. Syringes were weighed before and after injection to determine the volume delivered. The activity per unit volume was obtained from standards. A total of eleven different tissues were excised, weighed, and counted. These tissues included blood; bone; lung; liver; adrenal; spleen; kidneys; heart; muscle (thigh); teste; and infected muscle (thigh). The excised tissues were blotted, weighed, and counted in a scintillation well counter. The raw counts were decay corrected. The results were expressed as percent injected dose per gram, and infection-to-normal muscle ratios (mean ± s.d.). The biodistribution results were evaluated by analysis of variance (one-way ANOVA). The effect of avidin […] on biodistribution was evaluated by student t-test.

[3] = in vivo; type: in vivo, male Sprague-Dawley rats; conditions: rat, in vivo, iv
Protocol: as §1

avidin, sequence (P02701 25-152): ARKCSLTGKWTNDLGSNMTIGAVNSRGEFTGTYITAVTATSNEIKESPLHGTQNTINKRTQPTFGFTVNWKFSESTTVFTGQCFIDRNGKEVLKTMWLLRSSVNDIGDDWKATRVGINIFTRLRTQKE

binding to avidin [1]: no specific binding
Tissue distribution, Adrenal ([2]; rat, in vivo, iv, 5 min): 2.00±0.24 percent injected dose per gram
Tissue distribution, Blood ([2]; rat, in vivo, iv, 5 min): 0.85±0.04 percent injected dose per gram
Tissue distribution, Bone ([2]; rat, in vivo, iv, 5 min): 0.86±0.12 percent injected dose per gram
Tissue distribution, Heart ([2]; rat, in vivo, iv, 5 min): 0.96±0.10 percent injected dose per gram
Tissue distribution, Inf mus ([2]; rat, in vivo, iv, 5 min): 0.44±0.05 percent injected dose per gram
Tissue distribution, Kidney ([2]; rat, in vivo, iv, 5 min): 2.70±0.48 percent injected dose per gram
Tissue distribution, Liver ([2]; rat, in vivo, iv, 5 min): 1.91±0.22 percent injected dose per gram
Tissue distribution, Lung ([2]; rat, in vivo, iv, 5 min): 1.59±0.16 percent injected dose per gram
Tissue distribution, Norm mus ([2]; rat, in vivo, iv, 5 min): 0.69±0.10 percent injected dose per gram
Tissue distribution, Spleen ([2]; rat, in vivo, iv, 5 min): 0.99±0.10 percent injected dose per gram
Tissue distribution, Teste ([2]; rat, in vivo, iv, 5 min): 0.74±0.11 percent injected dose per gram
Tissue distribution, Adrenal ([2]; rat, in vivo, iv, 1 h): 0.72±0.12 percent injected dose per gram
Tissue distribution, Bone ([2]; rat, in vivo, iv, 1 h): 1.10±0.20 percent injected dose per gram
Tissue distribution, Inf mus ([2]; rat, in vivo, iv, 1 h): 0.18±0.02 percent injected dose per gram
Tissue distribution, Liver ([2]; rat, in vivo, iv, 1 h): 0.55±0.13 percent injected dose per gram
Tissue distribution, Lung ([2]; rat, in vivo, iv, 1 h): 0.55±0.12 percent injected dose per gram
Tissue distribution, Norm mus ([2]; rat, in vivo, iv, 1 h): 0.28±0.04 percent injected dose per gram
Tissue distribution, Spleen ([2]; rat, in vivo, iv, 1 h): 0.51±0.09 percent injected dose per gram
Tissue distribution, Teste ([2]; rat, in vivo, iv, 1 h): 0.15±0.02 percent injected dose per gram
tissue uptake at 5 min ([3]; Tissue distribution, Adrenal): 1.56 ± 0.14 %ID/g
tissue uptake at 1 h ([3]; Tissue distribution, Adrenal): 0.92 ± 0.21 %ID/g
tissue uptake at 5 min ([3]; Tissue distribution, Blood): 0.88 ± 0.07 %ID/g
tissue uptake at 1 h ([3]; Tissue distribution, Blood): 0.3 ± 0.02 %ID/g
tissue uptake at 5 min ([3]; Tissue distribution, Bone): 0.73 ± 0.09 %ID/g
tissue uptake at 1 h ([3]; Tissue distribution, Bone): 1.17 ± 0.21 %ID/g
tissue uptake at 5 min ([3]; Tissue distribution, Heart): 0.8 ± 0.06 %ID/g
tissue uptake at 1 h ([3]; Tissue distribution, Heart): 0.25 ± 0.03 %ID/g
tissue uptake at 5 min ([3]; Tissue distribution, Inf mus): 0.49 ± 0.05 %ID/g
tissue uptake at 1 h ([3]; Tissue distribution, Inf mus): 0.2 ± 0.02 %ID/g
tissue uptake at 5 min ([3]; Tissue distribution, Kidney): 1.62 ± 0.18 %ID/g
tissue uptake at 5 min ([3]; Tissue distribution, Liver): 1.63 ± 0.27 %ID/g
tissue uptake at 1 h ([3]; Tissue distribution, Liver): 0.42 ± 0.03 %ID/g
tissue uptake at 5 min ([3]; Tissue distribution, Lung): 1.38 ± 0.21 %ID/g
tissue uptake at 1 h ([3]; Tissue distribution, Lung): 0.58 ± 0.1 %ID/g
tissue uptake at 5 min ([3]; Tissue distribution, Norm mus): 0.62 ± 0.09 %ID/g
tissue uptake at 1 h ([3]; Tissue distribution, Norm mus): 0.35 ± 0.09 %ID/g
tissue uptake at 5 min ([3]; Tissue distribution, Spleen): 1.7 ± 0.68 %ID/g
tissue uptake at 1 h ([3]; Tissue distribution, Spleen): 0.26 ± 0.01 %ID/g
tissue uptake at 5 min ([3]; Tissue distribution, Teste): 0.59 ± 0.08 %ID/g
tissue uptake at 1 h ([3]; Tissue distribution, Teste): 0.2 ± 0.03 %ID/g
tissue uptake at 1 h ([3]; ^18F bone uptake (defluorination in vivo)): 1.17 ± 0.21 %ID/g
SMILES: O=C1N[C@H]2[C@H](CS[C@H]2CCCCC[18F])N1 [Biotin 2]
Infected to normal tissue ratio, Adrenal ([2]; With Avidin, 5 Min.): 0.22±0.03
Infected to normal tissue ratio, Blood ([2]; With Avidin, 5 Min.): 0.51±0.07
Infected to normal tissue ratio, Heart ([2]; With Avidin, 5 Min.): 0.46±0.03
Infected to normal tissue ratio, Kidney ([2]; With Avidin, 5 Min.): 0.16±0.02
Infected to normal tissue ratio, Liver ([2]; With Avidin, 5 Min.): 0.23±0.02
Infected to normal tissue ratio, Lung ([2]; With Avidin, 5 Min.): 0.28±0.02
Infected to normal tissue ratio, Spleen ([2]; With Avidin, 5 Min.): 0.44±0.05
Infected to normal tissue ratio, Teste ([2]; With Avidin, 5 Min.): 0.59±0.03
Infected to normal tissue ratio, bone ([2]; With Avidin, 5 Min.): 0.51±0.03
Infected to normal tissue ratio, Norm mus ([2]; With Avidin, 5 Min.): 0.65±0.10
Infected to normal tissue ratio, Adrenal ([2]; With Avidin, 60 Min.): 0.214±0.03
Infected to normal tissue ratio, Blood ([2]; With Avidin, 60 Min.): 0.71±0.05
Infected to normal tissue ratio, Heart ([2]; With Avidin, 60 Min.): 0.91±0.05
Infected to normal tissue ratio, Kidney ([2]; With Avidin, 60 Min.): 0.13±0.02
Infected to normal tissue ratio, Liver ([2]; With Avidin, 60 Min.): 0.33±0.05
Infected to normal tissue ratio, Lung ([2]; With Avidin, 60 Min.): 0.33±0.06
Infected to normal tissue ratio, Spleen ([2]; With Avidin, 60 Min.): 0.35±0.04
Infected to normal tissue ratio, Teste ([2]; With Avidin, 60 Min.): 1.15±0.06
Infected to normal tissue ratio, bone ([2]; With Avidin, 60 Min.): 0.17±0.03
Infected to normal tissue ratio, Norm mus ([2]; With Avidin, 60 Min.): 0.64±0.07
Infected to normal tissue ratio, Adrenal ([2]; Without Avidin, 5 Min.): 0.31±0.02
Infected to normal tissue ratio, Blood ([2]; Without Avidin, 5 Min.): 0.56±0.04
Infected to normal tissue ratio, Heart ([2]; Without Avidin, 5 Min.): 0.61±0.03
Infected to normal tissue ratio, Kidney ([2]; Without Avidin, 5 Min.): 0.30±0.02
Infected to normal tissue ratio, Liver ([2]; Without Avidin, 5 Min.): 0.31±0.04
Infected to normal tissue ratio, Lung ([2]; Without Avidin, 5 Min.): 0.36±0.05
Infected to normal tissue ratio, Spleen ([2]; Without Avidin, 5 Min.): 0.70±0.04
Infected to normal tissue ratio, Teste ([2]; Without Avidin, 5 Min.): 0.84±0.10
Infected to normal tissue ratio, bone ([2]; Without Avidin, 5 Min.): 0.67±0.05
Infected to normal tissue ratio, Norm mus ([2]; Without Avidin, 5 Min.): 0.80±0.12
Infected to normal tissue ratio, Adrenal ([2]; Without Avidin, 60 Min.): 0.23±0.05
Infected to normal tissue ratio, Blood ([2]; Without Avidin, 60 Min.): 0.68±0.06
Infected to normal tissue ratio, Heart ([2]; Without Avidin, 60 Min.): 0.81±0.05
Infected to normal tissue ratio, Kidney ([2]; Without Avidin, 60 Min.): 0.35±0.03
Infected to normal tissue ratio, Liver ([2]; Without Avidin, 60 Min.): 0.48±0.33
Infected to normal tissue ratio, Lung ([2]; Without Avidin, 60 Min.): 0.43±0.20
Infected to normal tissue ratio, Spleen ([2]; Without Avidin, 60 Min.): 0.78±0.08
Infected to normal tissue ratio, Teste ([2]; Without Avidin, 60 Min.): 1.04±0.11
Infected to normal tissue ratio, bone ([2]; Without Avidin, 60 Min.): 0.17±0.03
Infected to normal tissue ratio, Norm mus ([2]; Without Avidin, 60 Min.): 0.58 ± 0.07
Infected to normal tissue ratio, Norm mus ([2]; Without Avidin, 60 Min., listed as 18F-labeled biotin 2): 0.58±0.07
